Source: patent US20240148701A1, “WOULD HEALING METHODS” (The University of Sydney, priority 2021, published 2024)

Tests used:
[1] = test system: endothelial colony forming cells (ECFC); assay: Tubule formation in patient-derived endothelial colony forming cells; type: cell-based, human
Experimental: Human umbilical vein endothelial cells (HUVECs; Lonza C2519AS, pooled source, Australia) were grown using standard cell culture conditions in endothelial cell growth medium (EGM Plus®, containing 2% fetal bovine serum, Lonza, Australia). All cells were regularly confirmed to be mycoplasma negative. Two different pooled source cell lines were used in experiments and all were used within passages 2-4. Human adult dermal microvascular endothelial cells were also obtained from Lonza (CC-2543, Lonza Australia) and cultured as above but using endothelial growth medium 2-MV bulletkit. Endothelial colony forming cells (ECFCs) were derived from the peripheral blood of participants in the BioHEART study. This registered study (ACTRN12618001322224) complies with the Declaration of Helsinki and the study protocol and design has been approved by the Northern Sydney Local Health District Human Research Ethics Committee (HREC/17/HAWKE/343). […]
Once they were ˜70% confluent, cells were re-suspended in diluted EGM Plus® (1:3) and plated on reduced-growth factor extracellular matrix (15 mg/ml, Cultrex, Trevigen, USA) at a density of 1.5×10^4 cells/cm^2. […] Cells were incubated in an EVOS FL Auto Imaging system for 16 hours and tubule formation recorded every hour. Optimal tube formation occurred at the 8-hour timepoint; tubule number at this point was quantified manually using NIH Image J software. […]

[2] = test system: CD31; assay: CD31 histological analysis of hind limbs post-ischemia; type: in vivo, mouse; conditions: both type 1 diabetes and non-diabetic mice
Experimental: Formalin fixed paraffin-embedded gastrocnemius was cut into 4 μm sections and then sections were deparaffinized. Heat retrieval was performed with Tris-EDTA buffer at pH 9. Slides were incubated overnight with a rabbit polyclonal CD31 antibody (dilution 1:200, Abcam Ltd, Australia) followed by horseradish peroxidase anti-rabbit Envision system (Dako Cytochemistry, Tokyo, Japan). Staining was developed with 3.3 diaminobenzidine tetrahydrochloride (Dako Cytochemistry, Tokyo, Japan) and counterstained with Mayer's hematoxylin stain. Rabbit IgG negative controls (Dako Cytochemistry, Tokyo, Japan) were used. A total of ten non-overlapping images for each gastrocnemius were taken with a light microscope (Leica, DM750 linked to an ICC50 E camera module). Images were taken at ×40 and analyzed with National Institute of Health Image J 1.51j8 software.

[3] = test system: Nox 2; assay: Immunoblot of hind limb Nox 2 expression; type: in vivo, mouse; conditions: ischemic limb, non-diabetic mice, n=4, P>0.05
Experimental: Hind limb tissue including the gastrocnemius and adductor muscles were isolated and collected at 14 or 28 days. Tissues were separated and implanted in OCT or placed in cryovials and snap-frozen in liquid nitrogen or were fixed in 10% formalin for 24-hours and then moved to 70% ethanol for storage.
Gastrocnemius samples were stored at −80° C. and then mechanically homogenized in ice-cold lysis buffer containing 150 mmol/L NaCl, 200 mmol/L Tris-HCl (pH 8.0), 1% Triton X-100, 0.5% deoxycholic acid, 0.1% SDS, N-ethylmaleimide (25 mM) and protease inhibitors (cOmplete™ EDTA-free, Roche Diagnostics). 30 μg of protein lysate was denatured and run under reducing conditions on SDS-PAGE (Bolt™ pre-cast gels and reagents, Thermofisher Scientific, Australia) and transferred onto Immobilon polyvinylidene fluoride membrane (Merck Millipore, Australia). […] Membranes were detected using an Odyssey imaging platform (Licor, USA).

[4] = test system: eNOS; assay: eNOS immunoprecipitation, glutathionylation of eNOS in ischemic hind limb; type: in vivo, mouse; conditions: ischemic limbs of type 1 diabetes mice
Experimental: Gastronemius protein (500 μg) extracted as above was used for co-immunoprecipitation with eNOS. Protein G dynabeads (1.5 mg/ml, 2.8 μm beads, Thermofisher Scientific, Australia) were covalently conjugated with mouse anti-eNOS antibody (BD Biosciences, 1 μg) using bis(sulfosuccinimidyl) suberate amine-amine cross-linking solution (5 mM; ThermoFisher Scientific, Australia). Beads were washed with PBS and incubated with protein lysate overnight at 4° C. IgG controls were prepared using anti-IgG antibodies conjugated to dynabeads using an identical process. Protein was eluted from beads using LDS buffer, denatured and run in non-reduced conditions on 8% Bis-Tris gels using SDS-PAGE and transferred onto polyvinylidene fluoride membrane as above. Expression of oxidized glutathione was detected using mouse anti-glutathione antibody (Virogen, 1:1000). eNOS was detected using rabbit anti-eNOS (Cell Signaling Technology, 1:1000, Australia). Odyssey detection system was used to visualize bands as above.

## C[C@H](Cc1ccc2c(c1)OC(C(=O)[O-])(C(=O)[O-])O2)NC[C@H](O)c1cccc(Cl)c1.[Na+].[Na+] [CL 316,243]
[1]; ECFCs from patients with significant coronary artery disease, 100 ng/ml
  angiogenesis (tubule formation) in ECFCs: effectively stimulate angiogenesis
[1]; cells from relatively healthy participants
  angiogenesis in ECFCs: did not occur
[2]
  CD31+ staining in ischemic hindlimbs (vascularization): greater CD31+ staining
[3]
  Nox 2 hind limb protein expression: 1.04±0.46 fold change from vehicle
[4]
  glutathionylation of eNOS: largely abolished
